Data reported in patent US9399623B2, “Quinoline derivatives and their use in neurodegenerative diseases” (Merck Patent GmbH, priority 2014, dated 2016).

Columns and labels:
P2X7 [1] = molecular target: T1, P2X7 (Homo sapiens, UniProt Q99572); assay: Pore permeation assay (YO PRO dye uptake, BzATP-induced); format: cell-based; parameters: expressed in transfected cells; host or cells: HEK293; conditions: HEK293 transfected with human P2X7 receptor; YO PRO dye 1 uM, BzATP 10 uM; read-out: hP2X7 IC50
T1 sequence (Q99572 1-595): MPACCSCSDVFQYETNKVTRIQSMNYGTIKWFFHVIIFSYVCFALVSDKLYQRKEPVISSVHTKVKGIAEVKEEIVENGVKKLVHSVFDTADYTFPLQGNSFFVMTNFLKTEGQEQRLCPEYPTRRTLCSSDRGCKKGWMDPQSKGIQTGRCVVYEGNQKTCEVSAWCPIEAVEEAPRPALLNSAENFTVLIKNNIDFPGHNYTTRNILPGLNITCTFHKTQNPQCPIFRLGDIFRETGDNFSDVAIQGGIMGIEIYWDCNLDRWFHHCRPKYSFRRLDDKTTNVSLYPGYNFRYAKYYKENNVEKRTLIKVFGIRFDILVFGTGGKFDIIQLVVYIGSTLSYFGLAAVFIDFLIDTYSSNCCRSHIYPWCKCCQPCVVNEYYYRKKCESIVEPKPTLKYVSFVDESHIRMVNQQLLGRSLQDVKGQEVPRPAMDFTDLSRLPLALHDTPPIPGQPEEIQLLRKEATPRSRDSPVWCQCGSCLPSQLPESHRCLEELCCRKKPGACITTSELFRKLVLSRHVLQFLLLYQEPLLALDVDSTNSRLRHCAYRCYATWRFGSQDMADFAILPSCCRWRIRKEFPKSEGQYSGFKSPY
Protocol: Agonist-induced pore formation was determined by measuring cellular uptake of YO PRO fluorescence dye in HEK293 transfected with human P2X7 receptor. A HEK293 cell over expressing human P2X7 was harvested using HQTase reagent to detach the cells from T75 cm flask. The harvested cells are centrifuged @ 1200 rpm for 5 min at room temperature. The viability of cells was determined by Trypan blue dye and the cells are plated @ 10,000 cell/well in 50 ul volume in a 384 W BD Poly lysine coated plate and incubated overnight at 37 C. After overnight incubation, the culture medium was replaced with 35 ul/well assay buffer (5 mM KCl, 0.1 mM CaCl2, 5 mM Glucose, 10 mM HEPES buffer pH7.4 containing 125 mM NaCl. The serial dilution of compounds was performed using Bravo liquid handling instrument and the compounds were added using Bravo to the cell assay plate starting at 2.5 uM with three dilutions for 10 points. The positive control inhibitor compound was added to column 23. The plate was shaken slowly on a plate shaker for 10 seconds. The cells were incubated with the compound for 20 minutes at room temperature. After the incubation period, YO PRO dye (1 uM) along with BzATP (10 uM) were added to cells at 10 ul/well. The plate was centrifuged at 1000 rpm for 5 seconds and incubated at room temperature for 30 minutes. The uptake of YO PRO dye into the cells was measured using Envision Fluorescence plate reader instrument (Perkin Elmer).

P2X7 [2] = molecular target: T1, P2X7; assay: IL-1β release assay in THP-1 cells (sandwich ELISA); format: cell-based; parameters: release of mature IL-1β in the culture medium of THP-1 cells; endogenous in cells; host or cells: THP-1 cells (PMA-differentiated, LPS-primed); conditions: PMA, LPS primed, stimulated with 0.8 mM BzATP, mature IL-1β release, read-out: hTHP-1/IL-ib IC50
Protocol: The activation of P2X7 by ATP leads to a fast transient activation of cells resulting in influx of Ca^2+ followed by conversion of pro-IL-1β to active IL-1β. The functional activity of P2X7 compounds was measured by the release of mature IL-1β in the culture medium of THP-1 cells, detected by sandwich ELISA. Cells were maintained in complete growth medium (RPMI 1640+10% HI-FCS+2 mM L-glutamine+1×PS). […] THP-1 cells were harvested from the flask in 50 ml by centrifugation for 3 min at 100 g. The cells were resuspended to 2×10^5 cells/ml in medium supplemented with 0.5 μM PMA and incubated. The cells were washed and resuspended to 1.5×10^5 cells/ml in medium complemented with 10 ng/ml LPS, and the cells were primed for 4 h at 37° C., 5% CO2. After addition of 20 μL of prediluted test compounds, blank, standard and control reagents, cells were incubated for a further 20 min at 37° C. and stimulated with 0.8 mM BzATP for 30 minutes. The cells were centrifuged, supernatant was collected and the presence of mature IL-1β was detected using Dual human IL-1b kit following manufacturer's instruction. The tetrahydrobenzodiazepine analogs effectively modulated the activity of P2X7 in the cells as measured by the levels of pro-inflammatory cytokine IL-1β, which is released by the activation of P2X7 receptor.

Row | Compound | IC50 (P2X7 [1]) | IC50 (P2X7 [2])
1 | O=C(NCC1CCCC(F)(F)C1)c1c(Cl)ccc2nc(N3CC[C@H](F)C3)ccc12 (stereo partly drawn) [Compound 3, 6-Chloro-2-((S)-3-fluoropyrrolidin-1-yl)-quinoline-5-carboxylic acid (3,3-difluoro-cyclohexylmethyl)-amide] | < 10 nM | 101 to 500 nM
2 | NC1CCN(c2ccc3c(C(=O)NCC4CCC(F)(F)CC4)c(Cl)ccc3n2)C1 (stereo not drawn) [Compound 18] | < 10 nM | 10 to 100 nM
3 | O=C(NCC1(O)CCC(F)(F)CC1)c1c(Cl)ccc2nc(N3CCC(N4CCCC4)C3)ccc12 (stereo not drawn) [Compound 27, 6-Chloro-2-(3-pyrrolidinyl-pyrrolidin-1-yl)-quinoline-5-carboxylic acid (4,4-difluoro-1-hydroxy-cyclohexylmethyl)-amide] | 10 to 100 nM | 10 to 100 nM
4 | O=C(NC[C@]1(O)CCCC(F)(F)C1)c1c(Cl)ccc2nc(N3CCC(F)(F)C3)ccc12 [Compound 80, 6-Chloro-2-(3,3-difluoropyrrolidin-1-yl)-quinoline-5-carboxylic acid ((S)-3,3-difluoro-1-hydroxycyclohexylmethyl)-amide] | 101 to 500 nM | > 1000 nM
5 | COCCNc1ccc2c(C(=O)NCC3CCC(F)(F)CC3)c(Cl)ccc2n1 [Compound 68, 6-Chloro-2-(2-methoxy-ethylamino)-quinoline-5-carboxylic acid (4,4-difluoro-cyclohexyl methyl)-amide] | 10 to 100 nM | 500 to 999 nM
6 | COCCOc1ccc2c(C(=O)NCC3CCC(F)(F)CC3)c(Cl)ccc2n1 [Compound 70, 6-Chloro-2-(2-methoxy-ethoxy)-quinoline-5-carboxylic acid (4,4-difluoro-cyclohexyl methyl)-amide] | 10 to 100 nM | 101 to 500 nM
7 | O=C(NCC1CCC(F)(F)CC1)c1c(Cl)ccc2nc(N3CCC(C(F)F)C3)ccc12 (stereo not drawn) [Compound 59, 6-Chloro-2-(3-difluoromethyl-pyrrolidin-1-yl)-quinoline-5-carboxylic acid (4,4-difluoro-cyclohexylmethyl)-amide] | 10 to 100 nM | 101 to 500 nM
8 | CC(C)(C)OC(=O)N1CC=C(c2ccc3c(C(=O)NCC4CCC(F)(F)CC4)c(Cl)ccc3n2)CC1 [Compound 51, 4-{6-Chloro-5-[(4,4-difluoro-cyclohexylmethyl)-carbamoyl]-quinolin-2-yl}-3,6-dihydro-2H-pyridine-1-carboxylic acid tert-butyl ester] | 10 to 100 nM | 101 to 500 nM
9 | O=C(NCC1CCCC(F)(F)C1)c1c(Cl)ccc2nc(N3CC[C@@H](F)C3)ccc12 (stereo partly drawn) [Compound 1, 6-Chloro-2-((R)-3-fluoropyrrolidin-1-yl)-quinoline-5-carboxylic acid (3,3-difluoro-cyclohexylmethyl)-amide] | < 10 nM | 10 to 100 nM
10 | O=C(NCC1CCC(F)(F)CC1)c1c(Cl)ccc2nc(CCCO)ccc12 [Compound 64, 6-Chloro-2-(3-hydroxy-propyl)-quinoline-5-carboxylic acid (4,4-Difluorocyclohexyl methyl)-amide] | 10 to 100 nM | 101 to 500 nM
11 | O=C(NCC1(O)CCCC(F)(F)C1)c1c(Cl)ccc2nc(N3CCC3)ccc12 (stereo not drawn) [Compound 54, 2-(Azetidin-1-yl)-6-chloro-quinoline-5-carboxylic acid (3,3-difluoro-1-hydroxycyclohexylmethyl)-amide] | 10 to 100 nM | 101 to 500 nM
12 | O=C(NCC1CCC(F)(F)CC1)c1c(Cl)ccc2nc(N3CC[C@@H](F)C3)ccc12 [Compound 33, 6-Chloro-2-((R)-3-fluoropyrrolidin-1-yl)-quinoline-5-carboxylic acid (4,4-difluoro-cyclohexylmethyl)-amide] | 10 to 100 nM | 101 to 500 nM
13 | O=C(NCC1(O)CCCC(F)(F)C1)c1c(Cl)ccc2nc(N3CC[C@H](F)C3)ccc12 (stereo partly drawn) [Compound 36, 6-Chloro-2-((S)-3-fluoropyrrolidin-1-yl)-quinoline-5-carboxylic acid (3,3-difluoro-1-hydroxycyclohexylmethyl)-amide] | 10 to 100 nM | 10 to 100 nM
14 | CN(C)C1CCN(c2ccc3c(C(=O)NCC4CCC(F)(F)CC4)c(Cl)ccc3n2)C1 (stereo not drawn) [Compound 52] | 10 to 100 nM | 101 to 500 nM
15 | CCOC(=O)C1CCCN(c2ccc3c(C(=O)NCC4CCC(F)(F)CC4)c(Cl)ccc3n2)C1 (stereo not drawn) [Compound 55, 1-{6-Chloro-5-[(4,4-difluoro-cyclohexylmethyl)-carbamoyl]-quinolin-2-yl}-piperidine-3-carboxylic acid ethyl ester] | 10 to 100 nM | > 1000 nM
16 | O=C(NCC1CCC(F)(F)CC1)c1c(Cl)ccc2nc(N3CCC(CO)C3)ccc12 (stereo not drawn) [Compound 45] | 10 to 100 nM | 10 to 100 nM
17 | COCCCOc1ccc2c(C(=O)NCC3(O)CCC(F)(F)CC3)c(Cl)ccc2n1 [Compound 62, 6-Chloro-2-(3-methoxy-propoxy)-quinoline-5-carboxylic acid (4,4-difluoro-1-hydroxy-cyclohexyl methyl)-amide] | 10 to 100 nM | 101 to 500 nM

The remaining lines, values ahead:

Row | IC50 (P2X7 [1]) | IC50 (P2X7 [2]) | Compound
18 | 10 to 100 nM | 101 to 500 nM | CC(=O)NC1CCN(c2ccc3c(C(=O)NCC4CCC(F)(F)CC4)c(Cl)ccc3n2)C1 (stereo not drawn) [Compound 67, 2-(3-Acetylamino-pyrrolidin-1-yl)-6-chloro-quinoline-5-carboxylic acid (4,4-difluoro-cyclohexylmethyl)-amide]
19 | 10 to 100 nM | 10 to 100 nM | O=C(NCC1(O)CCCC(F)(F)C1)c1c(Cl)ccc2nc(N3CCC(F)C3)ccc12 (stereo not drawn) [Compound 38, 6-Chloro-2-(3-fluoropyrrolidin-1-yl)-quinoline-5-carboxylic acid (3,3-difluoro-1-hydroxycyclohexylmethyl)-amide]
20 | 10 to 100 nM | 101 to 500 nM | CN(CCO)c1ccc2c(C(=O)NCC3CCC(F)(F)CC3)c(Cl)ccc2n1 [Compound 73]
21 | 10 to 100 nM | 101 to 500 nM | O=C(NCC1CCC(F)(F)CC1)c1c(Cl)ccc2nc(C3CCOCC3)ccc12 [Compound 47, 6-Chloro-2-(tetrahydro-pyran-4-yl)-quinoline-5-carboxylic acid (4,4-difluoro-cyclohexyl methyl)-amide]
22 | 10 to 100 nM | 10 to 100 nM | O=C(NCC1CCC(F)(F)CC1)c1c(Cl)ccc2nc(N3CC[C@H](CO)C3)ccc12 [Compound 29, 6-Chloro-2-((S)-3-hydroxymethyl-pyrrolidin-1-yl)-quinoline-5-carboxylic acid (4,4-difluoro-cyclohexylmethyl)-amide]
23 | < 10 nM | 10 to 100 nM | CNC1CCN(c2ccc3c(C(=O)NCC4CCC(F)(F)CC4)c(Cl)ccc3n2)C1 (stereo not drawn) [Compound 17, 6-Chloro-2-(3-methylamino-pyrrolidin-1-yl)-quinoline-5-carboxylic acid (4,4-difluoro-cyclohexylmethyl)-amide]
24 | 10 to 100 nM | 10 to 100 nM | NC1CCN(c2ccc3c(C(=O)NCC4(O)CCCC(F)(F)C4)c(Cl)ccc3n2)C1 (stereo not drawn) [Compound 32, 2-(3-Aminopyrrolidin-1-yl)-6-chloro-quinoline-5-carboxylic acid (3,3-difluoro-1-hydroxycyclohexylmethyl)-amide]
